Inconclusive results and toxic doses are left out. Rule as the data show it: active = T/C of 150% or more; inactive = T/C below 125%.
Tested on: L1210 leukemia ip in BDF1 mice, survival T/C
Experiment: NCI In Vivo Anticancer Drug Screen. Data for tumor model L1210 Leukemia (intraperitoneal) in B6D2F1 (BDF1) mice
Settings: endpoint: mean survival time, higher = longer survival
Method in brief: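 Mice bearing the transplanted tumor received compound or vehicle. Survival of the treated group was divided by that of the vehicle-treated control group to give the ratio.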

[1] = dose: 100.0 mg/kg/injection, schedule: Q01DX001 (ip), vehicle: other
[2] = dose: 200.0 mg/kg/injection, schedule: Q01DX001 (ip), vehicle: other
[3] = dose: 400.0 mg/kg/injection, schedule: Q01DX001 (ip), vehicle: other
[4] = dose: 100.0 mg/kg/injection, schedule: Q04DX003 (ip), vehicle: saline with Tween-80
[5] = dose: 200.0 mg/kg/injection, schedule: Q04DX003 (ip), vehicle: saline with Tween-80
[6] = dose: 50.0 mg/kg/injection, schedule: Q01DX001 (ip), vehicle: saline
[7] = dose: 400.0 mg/kg/injection, schedule: Q04DX003 (ip), vehicle: saline with Tween-80
[8] = dose: 100.0 mg/kg/injection, schedule: Q01DX009 (ip), vehicle: Klucel (hydroxypropylcellulose) (HPC)
[9] = dose: 200.0 mg/kg/injection, schedule: Q01DX009 (ip), vehicle: Klucel (hydroxypropylcellulose) (HPC)
[10] = dose: 400.0 mg/kg/injection, schedule: Q01DX009 (ip), vehicle: Klucel (hydroxypropylcellulose) (HPC)
[11] = dose: 100.0 mg/kg/injection, schedule: Q01DX001 (ip), vehicle: saline
[12] = dose: 200.0 mg/kg/injection, schedule: Q01DX001 (ip), vehicle: saline
[13] = dose: 400.0 mg/kg/injection, schedule: Q01DX001 (ip), vehicle: saline
[14] = dose: 100.0 mg/kg/injection, schedule: Q04DX003 (ip), vehicle: saline
[15] = dose: 200.0 mg/kg/injection, schedule: Q04DX003 (ip), vehicle: saline
[16] = dose: 400.0 mg/kg/injection, schedule: Q04DX003 (ip), vehicle: saline

Measured: T/C

COc1ccc(CNCCCCO)cc1
inactive: dose: 50.0 mg/kg/injection, schedule: Q01DX009 (ip), vehicle: other 106 % of control | [1] 104 % of control | dose: 100.0 mg/kg/injection, schedule: Q01DX009 (ip), vehicle: other 102 % of control | [2] 106 % of control | dose: 200.0 mg/kg/injection, schedule: Q01DX009 (ip), vehicle: other 95 % of control | [3] 97 % of control

Cn1c(/N=C/c2ccc([N+](=O)[O-])cc2)c(N)c(=O)n(C)c1=O
inactive: dose: 50.0 mg/kg/injection, schedule: Q01DX001 (ip), vehicle: carboxymethylcellulose (CMC) 90 % of control | dose: 100.0 mg/kg/injection, schedule: Q01DX001 (ip), vehicle: carboxymethylcellulose (CMC) 93 % of control | dose: 200.0 mg/kg/injection, schedule: Q01DX001 (ip), vehicle: carboxymethylcellulose (CMC) 88 % of control | dose: 400.0 mg/kg/injection, schedule: Q01DX001 (ip), vehicle: carboxymethylcellulose (CMC) 88 % of control

COc1ccccc1C(=O)N/N=C\c1c[nH]c2ccccc12
inactive: dose: 100.0 mg/kg/injection, schedule: Q04DX002 (ip), vehicle: Klucel (hydroxypropylcellulose) (HPC) 93 % of control | dose: 200.0 mg/kg/injection, schedule: Q04DX002 (ip), vehicle: Klucel (hydroxypropylcellulose) (HPC) 89 % of control | dose: 400.0 mg/kg/injection, schedule: Q04DX002 (ip), vehicle: Klucel (hydroxypropylcellulose) (HPC) 89 % of control

CCOC(=O)N1C2C(c3ccccc3)=NC(C)(C)N2C(c2ccc([N+](=O)[O-])cc2)N1C(=O)OCC (centres undefined)
inactive: [1] 93 % of control | [2] 102 % of control | [3] 91 % of control

CN(C)C(C)(C)CC(C)(C)C
inactive: dose: 25.0 mg/kg/injection, schedule: Q04DX003 (ip), vehicle: saline with Tween-80 103 % of control | dose: 50.0 mg/kg/injection, schedule: Q04DX003 (ip), vehicle: saline with Tween-80 106 % of control | [4] 103 % of control

CN/N=C\c1cc2ccccc2c2ccccc12
inactive: dose: 50.0 mg/kg/injection, schedule: Q01DX001 (ip), vehicle: alcohol 89 % of control | dose: 100.0 mg/kg/injection, schedule: Q01DX001 (ip), vehicle: alcohol 89 % of control | dose: 200.0 mg/kg/injection, schedule: Q01DX001 (ip), vehicle: alcohol 100 % of control | dose: 400.0 mg/kg/injection, schedule: Q01DX001 (ip), vehicle: alcohol 89 % of control

CCCCN1CCC(N)=NC1=O
inactive: dose: 100.0 mg/kg/injection, schedule: Q01DX Z (ip), vehicle: saline 100 % of control | dose: 200.0 mg/kg/injection, schedule: Q01DX Z (ip), vehicle: saline 100 % of control

NC(=S)N/N=C/c1ccc2c(c1)OCO2
inactive: [4] 95 % of control | [5] 103 % of control

C=C(C(=O)O)C(=O)O
inactive: dose: 50.0 mg/kg/injection, schedule: Q01DX009 (ip), vehicle: saline 102 % of control | dose: 100.0 mg/kg/injection, schedule: Q01DX009 (ip), vehicle: saline 116 % of control | [4] 97 % of control | dose: 200.0 mg/kg/injection, schedule: Q01DX009 (ip), vehicle: saline 100 % of control | [5] 106 % of control

c1ccc(-c2csc3[n+]2CCN3)cc1
inactive: [6] 99 % of control

COC(OC)c1[nH]c(=S)[nH]c(=O)c1Cc1ccccc1
inactive: dose: 25.0 mg/kg/injection, schedule: Q01DX009 (ip), vehicle: saline with Tween-80 98 % of control | dose: 50.0 mg/kg/injection, schedule: Q01DX009 (ip), vehicle: saline with Tween-80 96 % of control | dose: 100.0 mg/kg/injection, schedule: Q01DX009 (ip), vehicle: saline with Tween-80 98 % of control | [4] 102 % of control | dose: 200.0 mg/kg/injection, schedule: Q01DX009 (ip), vehicle: saline with Tween-80 86 % of control | [5] 96 % of control | [7] 94 % of control

ClC1=C(Cl)C(Cl)(C2(Cl)C(Cl)=C(Cl)C(Cl)=C2Cl)C(Cl)=C1Cl
inactive: [8] 93 % of control | [9] 102 % of control | [10] 95 % of control

Nc1cc(Cl)ccc1O
inactive: [11] 98 % of control | [12] 91 % of control

CC1COCCCCCC(=O)C1 (centres undefined)
inactive: [11] 91 % of control | [12] 107 % of control | [13] 107 % of control

O=C(Nc1ccc(CCO)cc1)Nc1cccc(Cl)c1Cl
inactive: [8] 91 % of control | [9] 91 % of control | [10] 100 % of control

Cc1nccn1C
inactive: [11] 101 % of control | [12] 90 % of control | [13] 92 % of control

CCOC(=O)NC12c3ccccc3C(c3ccccc31)C(C(=O)O)C2C(=O)O (centres undefined)
inactive: dose: 100.0 mg/kg/injection, schedule: Q04DX003 (ip), vehicle: saline sonified 90 % of control | dose: 200.0 mg/kg/injection, schedule: Q04DX003 (ip), vehicle: saline sonified 119 % of control | dose: 400.0 mg/kg/injection, schedule: Q04DX003 (ip), vehicle: saline sonified 90 % of control

c1ccc(-c2nnn(-c3ccccc3)n2)cc1
inactive: [4] 94 % of control | [5] 93 % of control | [7] 98 % of control

Cc1ccc(CNC(=O)Nc2cccc(Cl)c2)cc1C
inactive: [8] 97 % of control | [9] 92 % of control | [10] 103 % of control

O=S(=O)(O)c1cc(O)c(S(=O)(=O)O)cc1O
inactive: [14] 98 % of control | [15] 92 % of control | [16] 110 % of control

CCN(Cc1ccccc1)C(=S)[S-].CCN(Cc1ccccc1)C(=S)[S-].[Zn]
inactive: [14] 91 % of control | [15] 94 % of control | [16] 89 % of control

CC(CCN1CCOCC1)(CNC1=NCCN1)c1cccc2ccccc12 (centres undefined)
inactive: dose: 5.0 mg/kg/injection, schedule: Q01DX009 (ip), vehicle: saline with Tween-80 100 % of control | dose: 10.0 mg/kg/injection, schedule: Q01DX009 (ip), vehicle: saline with Tween-80 96 % of control | dose: 20.0 mg/kg/injection, schedule: Q01DX009 (ip), vehicle: saline with Tween-80 103 % of control

CC1(CCCOc2ccc(N)cc2)N=C(N)N=C(N)N1c1ccccc1 (centres undefined)
inactive: dose: 5.0 mg/kg/injection, schedule: Q01DX001 (ip), vehicle: saline 96 % of control | dose: 10.0 mg/kg/injection, schedule: Q01DX001 (ip), vehicle: saline 96 % of control | dose: 20.0 mg/kg/injection, schedule: Q01DX001 (ip), vehicle: saline 92 % of control | dose: 40.0 mg/kg/injection, schedule: Q01DX001 (ip), vehicle: saline 92 % of control | dose: 80.0 mg/kg/injection, schedule: Q01DX001 (ip), vehicle: saline 90 % of control

O=C1NC(=O)N2CCSC2(Cc2ccccc2)N1 (centres undefined)
inactive: [6] 108 % of control | [11] 96 % of control | [12] 96 % of control | [13] 100 % of control

O=C(Nc1ccc(CCO)cc1)Nc1cccc(F)c1
inactive: [8] 103 % of control | [9] 102 % of control | [10] 88 % of control

CN(C)N=Nc1ccc(C(=O)N/N=C/c2cccc([N+](=O)[O-])c2)cc1
inactive: dose: 50.0 mg/kg/injection, schedule: Q04DX003 (ip), vehicle: Klucel (hydroxypropylcellulose) (HPC) 92 % of control | dose: 100.0 mg/kg/injection, schedule: Q04DX003 (ip), vehicle: Klucel (hydroxypropylcellulose) (HPC) 106 % of control | dose: 200.0 mg/kg/injection, schedule: Q04DX003 (ip), vehicle: Klucel (hydroxypropylcellulose) (HPC) 92 % of control

Cc1ccc(C(=O)C(F)(F)F)cc1
inactive: [4] 96 % of control | [5] 102 % of control

COc1ccc(/C=C2/N=C(C)OC2=O)cc1
inactive: dose: 100.0 mg/kg/injection, schedule: Q01DX001 (ip), vehicle: Klucel (hydroxypropylcellulose) (HPC) 92 % of control | dose: 200.0 mg/kg/injection, schedule: Q01DX001 (ip), vehicle: Klucel (hydroxypropylcellulose) (HPC) 98 % of control | dose: 400.0 mg/kg/injection, schedule: Q01DX001 (ip), vehicle: Klucel (hydroxypropylcellulose) (HPC) 102 % of control

COC(=O)c1ccccc1NC(=O)c1ccc(C(=O)Nc2ccccc2C(=O)OC)cc1
inactive: [8] 107 % of control | [9] 92 % of control | [10] 92 % of control

Clc1ccccc1/C=C/c1ccccn1
inactive: dose: 6.25 mg/kg/injection, schedule: Q04DX002 (ip), vehicle: DMSO 102 % of control | dose: 12.5 mg/kg/injection, schedule: Q04DX002 (ip), vehicle: DMSO 98 % of control | dose: 25.0 mg/kg/injection, schedule: Q04DX002 (ip), vehicle: DMSO 109 % of control | dose: 100.0 mg/kg/injection, schedule: Q04DX002 (ip), vehicle: DMSO 94 % of control

— PubChem BioAssay AID248 (DTP/NCI, 2004)
